Earlier results as cited in patent US20050101642A1, “Chemical complex comprising a pyridine carboxy derivative and an H2 histamine receptor antagonist” (Astion Development ApS, priority 2000, published 2005).

Molecular target: poly(ADP-ribose)polymerase (Homo sapiens, UniProt P09874)
Sequence (P09874 whole entry): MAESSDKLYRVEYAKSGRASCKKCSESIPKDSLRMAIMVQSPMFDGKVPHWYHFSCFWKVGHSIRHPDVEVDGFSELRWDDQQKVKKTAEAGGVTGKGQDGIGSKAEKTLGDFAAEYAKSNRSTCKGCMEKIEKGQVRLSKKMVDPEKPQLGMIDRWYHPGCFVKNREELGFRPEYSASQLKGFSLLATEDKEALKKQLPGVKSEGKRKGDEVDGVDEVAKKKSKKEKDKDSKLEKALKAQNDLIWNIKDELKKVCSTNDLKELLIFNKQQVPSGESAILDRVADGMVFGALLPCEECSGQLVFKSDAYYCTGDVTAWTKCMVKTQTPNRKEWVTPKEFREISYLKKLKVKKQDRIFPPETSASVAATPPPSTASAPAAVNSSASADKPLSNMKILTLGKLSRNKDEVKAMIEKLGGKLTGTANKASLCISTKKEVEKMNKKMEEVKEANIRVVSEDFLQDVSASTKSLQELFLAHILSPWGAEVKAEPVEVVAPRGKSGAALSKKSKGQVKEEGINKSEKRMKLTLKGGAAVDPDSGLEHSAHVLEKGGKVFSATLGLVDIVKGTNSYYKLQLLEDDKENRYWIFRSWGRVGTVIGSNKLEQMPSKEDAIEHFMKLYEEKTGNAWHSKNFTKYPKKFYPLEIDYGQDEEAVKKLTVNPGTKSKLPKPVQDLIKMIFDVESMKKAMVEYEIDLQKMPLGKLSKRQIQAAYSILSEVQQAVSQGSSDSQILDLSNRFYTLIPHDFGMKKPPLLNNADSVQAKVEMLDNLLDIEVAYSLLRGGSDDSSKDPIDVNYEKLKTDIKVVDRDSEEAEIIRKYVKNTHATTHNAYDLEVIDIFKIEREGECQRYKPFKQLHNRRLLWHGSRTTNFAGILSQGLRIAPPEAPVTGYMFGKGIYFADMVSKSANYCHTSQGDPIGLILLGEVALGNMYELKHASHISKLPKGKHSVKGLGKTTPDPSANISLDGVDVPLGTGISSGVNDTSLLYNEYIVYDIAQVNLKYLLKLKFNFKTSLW

For `NC(=O)c1cccnc1` [Niacinamide], which “inhibition of poly(ADP-ribose)polymerase” value is on record?
Its value is “potent inhibitor”.
